From patent publication US20110105434A1, “2-AMINO PURINE DERIVATIVES AND THEIR USE AS ANTI-HERPETIC AGENTS” (priority 2007, published 2011)

Legend:
[1] = system: patients with autoimmune disease; test: pain and signs or symptoms of autoimmune disease in general; assay type: in vivo, human; conditions: very high levels
Experimental: After the drugs take effect, usually in less than an hour, the pain is at least 50% reduced or disappears. This is a particularly surprising and useful discovery.
In the past, it was observed, that a patient that stopped increasing the dosage of the anti-herpes drugs at the threshold of pain rarely achieves the relief of the autoimmune signs or symptoms. Patients who exceed the pain threshold and take over 20 g per day (over 200 mg/kg/day) start experiencing a reduction in autoimmune symptoms for prolonged periods of time. The pain in such patients eventually disappears. Patients who take even higher doses, 30 g per day for a 100 kg subject (300 mg/kg) and higher, experience a continuous relief of at least 90% of all of their autoimmune signs or symptoms, including pain, as long as they continue taking the drug.
Most importantly, the present invention teaches alleviation of pain associated with autoimmune disease. The prior art, including the '114 patent, teaches to use pain as guide when adjusting the maximum dose of the anti-herpes drug. However, it is now disclosed that a patient should tolerate the pain during the initial period of taking extremely high doses of anti-herpes drugs. After the drugs take effect, usually in less than an hour, the pain is at least 50% reduced or disappears. […]

[2] = body pH of 7.4; cited from earlier work
[3] = system: patient with nutcracker esophagus; test: nutcracker esophagus spasms; assay type: in vivo, human; conditions: 300 mg/kg per day
Text: Another condition experienced by the patient related to muscle spasms referred to as the “nutcracker esophagus.” This condition involves very painful spasms of the esophagus caused by food touching the hypersensitive “trigger points” inside the esophagus. These spasms can persist from minutes to hours. […] The condition recurs within a few hours when the drug is stopped.

[4] = system: patient with fibromyalgia; test: fibromyalgia pain; assay type: in vivo, human; conditions: 300 mg/kg per day
Experimental: Yet another effect was alleviation of fibromyalgia: The pain was reduced by about 95% at 300 mg/kg of famciclovir per day.

[5] = approved oral dose range; cited from earlier work
[6] = system: patient with cranial nerve palsy; test: cranial nerve palsy (loss of control of soft palate) and loss of sympathetic nerve function; assay type: in vivo, human
Text: The loss of sympathetic nerve functions, can occur with a loss of control of some function of some autonomic muscles, or loss of sensation or both. This is not as common as 1 through 6, above. And, the effects are usually not as severe. One example is the loss of control of the soft palate, either partial or complete which can cause severe snoring, and is part of the sleep apnea syndrome, and also can cause a snorting sound when talking or laughing, or can cause food to get caught under the soft palate. Another condition is cranial nerve palsies as discussed in the Sixteenth Edition of the Merck Manual at page 2395. […] This new treatment effectively suppresses all of these conditions, and in at least one patient return of most lost function of the soft palate has occurred. In another there was significant return of anal sphincter tone with these doses which had been previously lost on the doses of '114.
A patient was experiencing the loss of control of the soft palate because it could not properly contract, a condition known as cranial nerve palsy. The condition causes snorting during talking and difficulty swallowing food. The food often lodges above the soft palate. These symptoms were 80% eliminated at 300 mg/kg of famciclovir per day.

[7] = system: patient with aseptic meningitis; test: treatment of aseptic meningioencephalitis / aseptic meningitis; assay type: in vivo, human
Text: The inventor thought that the cause of the AME was the patient's herpes infection that had spread internally to the brain and meninges. […] Because the product inserts for the anti-viral products on the market ([…]®) all warned against using increased doses of the product because of the fear of further renal damage, there was reason not to use increased doses beyond those of '114. […] A patient weighing about 100 kg having multiple signs or symptoms of autoimmune disease had been ingesting famciclovir for several years at about 10 g per day taken 4 times daily during a 24 hour period. While the subject's condition was tolerable, they were in a regular state of pain in the joints and had other signs or symptoms discussed below. They experienced significant headache pain, which was diagnosed as aseptic meningitis, which was discovered to be treatable initially using 340 mg of famciclovir per kg body weight. […] The inflammation and pain are therefore thought to be caused by the immune attack on the infected tissues. Within hours of taking the high doses of famciclovir, the patient experienced at least 60% relief of the extremely painful and debilitating symptoms of meningitis. […] The Shalabi, et al. report is discouraging. According to the authors, the disease is self-resolving. Without a double-blind study, it was not possible to detect the contribution of acyclovir to the recovery.

[8] = system: patient with nose and brow acne and rosacea; test: acne and rosacea; assay type: in vivo, human; conditions: 300 mg/kg per day
Experimental: Additional symptoms relieved by the high doses of anti-herpes drugs involve severe nose and brow acne and rosacea on the chin and lower cheeks. Although the mechanism for these conditions is not understood, they are believed to be of autoimmune origin. Both skin conditions disappeared at 300 mg/kg of famciclovir per day and recurred when the drug was stopped.

[9] = system: patient with reduced renal function; conditions: on the doses of '114 (maximum 120 mg/kg/day); improved from 29 mL/min; cited from earlier work
[10] = system: patient with Raynaud's syndrome; test: Raynaud's syndrome signs or symptoms; assay type: in vivo, human; conditions: 300 mg/kg per day in four equal doses over 24 hours
Text: This example sets forth the treatment of a patient with signs or symptoms of disease associated with reduced blood flow to an organ or tissue (correlated with hypertonicity of the associated blood vessels) using high doses of famciclovir, a compound of Formula (II) where B is H and each of R1 and R2 is CH3C(O)—, at a level and under conditions as explained below.
A patient weighing about 100 kg having multiple signs or symptoms of autoimmune disease had been ingesting famciclovir for several years at about 10 g per day taken 4 times daily during a 24 hour period. While the subject's condition was tolerable, they were in a regular state of pain in the joints and had other signs or symptoms discussed below.
The patient also presented signs or symptoms of Raynaud's syndrome, which involves marked or severe vasoconstriction and ischemia in the extremities, usually fingers and toes. As a result, the patient often experienced extreme pain, cold, discoloration, lack of sensation and weakness in the affected parts. […] The signs or symptoms returned when the frequency of taking the drug was lowered from once every 6 hours to once every 10 hours.

CC(=O)OCC(CCn1cnc2cnc(N)nc21)COC(C)=O [famciclovir, 2-amino-9-(4-acetoxy-3-acetoxymethylbut-1-yl)purine]
pain associated with autoimmune disease [1]: immediate relief
water solubility compared with other representative compounds such as acyclovir [2]: more water soluble
nutcracker esophagus condition [3]: completely relieved and prevented
fibromyalgia pain reduced [4]: about 95%
absorption (dose linearity) [5]: linear
soft palate muscle strength ([6]; 300 mg/kg daily, over a six-month period): gradually returned
cranial nerve palsy symptoms eliminated ([6]; 300 mg/kg per day): 80%
unremitting severe symptoms of aseptic meningitis ([7]; 340 mg/kg per day, maintained at 300 mg/kg/day): quickly dispersed
relief of symptoms of meningitis ([7]; 340 mg/kg, within hours of taking): at least 60%
treating the AME ([7]; maximum dose of 120 mg/kg body weight as taught in '114): ineffective
acute pain and the AME ([7]; more than 250, e.g. 340 to 400 mg/kg/day): completely stopped
skin conditions (acne, rosacea) [8]: disappeared
creatinine clearance level [9]: 89 mL/min
Raynaud's signs or symptoms (pain, cold, discoloration, lack of sensation, weakness) [10]: dramatically abated
